Test results from US10370366B2 (Flatley Discovery Lab, LLC, priority 2013, dated 2019).

Molecular target: T1, human F508del CFTR (Homo sapiens, UniProt P13569, DEL508-508)
T1 construct: expressed in transfected cells; host or cells: Fisher Rat Thyroid (FRT) cells
Test: CFTR-YFP High Throughput Assay
Assay type: cell-based
Conditions: FRT cells expressing human F508del CFTR and YFP; for Emax: EMax normalized to the positive control, read-out: % Efficacy
In short: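 Corrector mode: 24-26 h compound exposure (2 nM-40 μM, 37° C) of FRT cells carrying human F508del CFTR and YFP-H148Q/I152L, followed by washing and 60-120 min RT stimulation with 20 μM forskolin and 30 μM P3. CFTR activity is the least-squares-fitted rate of YFP quenching (Ex 500/Em 540 nm) after iodide addition.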

T1 sequence (P13569 with tags, fused parts or gaps DEL508-508): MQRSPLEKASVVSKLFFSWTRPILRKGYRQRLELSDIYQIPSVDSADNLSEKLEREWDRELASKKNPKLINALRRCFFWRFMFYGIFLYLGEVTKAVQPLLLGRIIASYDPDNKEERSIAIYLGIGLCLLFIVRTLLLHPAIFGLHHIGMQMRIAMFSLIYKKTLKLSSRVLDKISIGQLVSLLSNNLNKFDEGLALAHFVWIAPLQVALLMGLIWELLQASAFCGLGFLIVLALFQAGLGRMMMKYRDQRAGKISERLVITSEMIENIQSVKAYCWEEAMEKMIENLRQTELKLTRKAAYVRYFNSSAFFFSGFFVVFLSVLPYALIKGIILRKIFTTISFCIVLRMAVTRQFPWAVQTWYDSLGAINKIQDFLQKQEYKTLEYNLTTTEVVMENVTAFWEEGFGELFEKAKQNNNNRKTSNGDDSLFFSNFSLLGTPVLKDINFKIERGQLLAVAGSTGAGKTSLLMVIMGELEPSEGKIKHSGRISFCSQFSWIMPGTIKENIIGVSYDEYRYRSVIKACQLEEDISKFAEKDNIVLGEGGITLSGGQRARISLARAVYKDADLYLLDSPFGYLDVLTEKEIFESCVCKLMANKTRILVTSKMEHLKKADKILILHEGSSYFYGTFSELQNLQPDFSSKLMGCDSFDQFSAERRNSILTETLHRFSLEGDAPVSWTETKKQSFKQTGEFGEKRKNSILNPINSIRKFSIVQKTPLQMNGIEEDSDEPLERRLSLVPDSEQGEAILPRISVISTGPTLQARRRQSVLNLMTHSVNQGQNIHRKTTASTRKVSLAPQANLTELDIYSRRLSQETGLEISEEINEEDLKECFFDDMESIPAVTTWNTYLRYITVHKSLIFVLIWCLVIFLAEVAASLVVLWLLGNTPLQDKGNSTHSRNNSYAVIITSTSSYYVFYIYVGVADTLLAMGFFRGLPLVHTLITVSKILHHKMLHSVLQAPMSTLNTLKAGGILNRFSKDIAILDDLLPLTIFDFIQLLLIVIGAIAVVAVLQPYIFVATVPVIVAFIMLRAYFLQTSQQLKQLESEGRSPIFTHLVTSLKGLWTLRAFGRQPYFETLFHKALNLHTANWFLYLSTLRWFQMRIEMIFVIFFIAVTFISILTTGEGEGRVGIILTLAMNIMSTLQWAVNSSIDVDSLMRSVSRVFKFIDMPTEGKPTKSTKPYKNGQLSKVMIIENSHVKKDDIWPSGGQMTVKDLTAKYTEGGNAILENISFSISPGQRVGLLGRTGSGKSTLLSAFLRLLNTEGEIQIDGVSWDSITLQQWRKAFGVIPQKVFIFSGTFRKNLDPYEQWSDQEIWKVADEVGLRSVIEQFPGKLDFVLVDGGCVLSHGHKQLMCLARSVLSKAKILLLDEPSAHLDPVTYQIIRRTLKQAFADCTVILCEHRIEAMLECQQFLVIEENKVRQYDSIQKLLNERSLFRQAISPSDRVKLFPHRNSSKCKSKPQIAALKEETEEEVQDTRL

| SMILES | Emax | EC50 |
| --- | --- | --- |
| CC(C)n1nc(-c2ccccc2)c2c3ccccc3n(C)c2c1=O [Example 239, 3-isopropyl-5-methyl-1-phenyl-3,5-dihydro-4H-pyridazino[4,5-b]indol-4-one] | 30 to 80% | > 20 µM |
| CC(C)n1nc(-c2cccc(C#N)c2)c2c3ccccc3n(C)c2c1=O [Example 240, 3-(3-isopropyl-5-methyl-4-oxo-4,5-dihydro-3H-pyridazino[4,5-b]indol-1-yl)benzonitrile] | 30 to 80% | > 20 µM |
| Cn1c2ccccc2c2c(-c3ccccc3)nn(C3CCCCC3)c(=O)c21 [Example 241, 3-cyclohexyl-5-methyl-1-phenyl-3,5-dihydro-4H-pyridazino[4,5-b]indol-4-one] | 30 to 80% | < 10 µM |
| Cc1ccc(-n2nc(Cn3ccnc3)c3c4ccccc4n(C)c3c2=O)cc1 [Example 242, 1-((1H-imidazol-1-yl)methyl)-5-methyl-3-(p-tolyl)-3,5-dihydro-4H-pyridazino[4,5-b]indol-4-one] | 30 to 80% | > 20 µM |
| Cc1ccc(-n2nc(CN3CCOCC3)c3c4ccccc4n(C)c3c2=O)cc1 [Example 243, 5-methyl-1-(morpholinomethyl)-3-(p-tolyl)-3,5-dihydro-4H-pyridazino[4,5-b]indol-4-one] | 30 to 80% | < 10 µM |
| Cn1c2ccccc2c2c(-c3cccc(C#N)c3)nn(C3CCCCC3)c(=O)c21 [Example 244, 3-(3-cyclohexyl-5-methyl-4-oxo-4,5-dihydro-3H-pyridazino[4,5-b]indol-1-yl)benzonitrile] | 30 to 80% | < 10 µM |
| CCN(C(=O)c1nn(-c2ccc(C)cc2)c(=O)c2c1c1sc(C)cc1n2C)c1ccccc1 [Example 245, N-ethyl-2,4-dimethyl-5-oxo-N-phenyl-6-(p-tolyl)-5,6-dihydro-4H-thieno[2′,3′:4,5]pyrrolo[2,3-d]pyridazine-8-carboxamide] | 10 to 30% | < 10 µM |
| CCN(C(=O)c1nn(C(C)C)c(=O)c2c1c1sc(C)cc1n2C)c1ccccc1 [Example 246, N-ethyl-6-isopropyl-2,4-dimethyl-5-oxo-N-phenyl-5,6-dihydro-4H-thieno[2′,3′:4,5]pyrrolo[2,3-d]pyridazine-8-carboxamide] | 30 to 80% | > 20 µM |
| CCN(C(=O)c1nn(-c2ccc(C)cc2)c(=O)c2c1c1sc(C)cc1n2C)c1ccccc1F [Example 247, N-ethyl-N-(2-fluorophenyl)-2,4-dimethyl-5-oxo-6-(p-tolyl)-5,6-dihydro-4H-thieno[2′,3′:4,5]pyrrolo[2,3-d]pyridazine-8-carboxamide] | 30 to 80% | > 20 µM |
| Cc1ccc(-n2nc(C(=O)N(c3ccccc3)C(C)C)c3c(-c4ccccc4)onc3c2=O)cc1 [Example 248, N-isopropyl-7-oxo-N,3-diphenyl-6-(p-tolyl)-6,7-dihydroisoxazolo[3,4-d]pyridazine-4-carboxamide] | 10 to 30% | < 10 µM |
| COc1ccc2c(-c3cccc(Cl)c3)nn(CC(=O)C3(c4ccc5c(c4)OC(F)(F)O5)CC3)c(=O)c2c1 [Example 249, 4-(3-chlorophenyl)-2-(2-(1-(2,2-difluorobenzo[d][1,3]dioxol-5-yl)cyclopropyl)-2-oxoethyl)-7-methoxyphthalazin-1(2H)-one] | > 80% | < 10 µM |
| COc1ccc2c(-c3cccc(F)c3)nn(CC(=O)C3(c4ccc5c(c4)OC(F)(F)O5)CC3)c(=O)c2c1 [Example 250, 2-(2-(1-(2,2-difluorobenzo[d][1,3]dioxol-5-yl)cyclopropyl)-2-oxoethyl)-4-(3-fluorophenyl)-7-methoxyphthalazin-1(2H)-one] | 30 to 80% | < 10 µM |
| COc1ccc(C2(C(=O)Cn3nc(-c4cccc(Cl)c4)c4ccc(OC)cc4c3=O)CC2)cc1 [Example 251, 4-(3-chlorophenyl)-7-methoxy-2-(2-(1-(4-methoxyphenyl)cyclopropyl)-2-oxoethyl)phthalazin-1(2H)-one] | 30 to 80% | < 10 µM |
| COc1ccc2c(-c3cccc(C#N)c3)nn(CC(=O)C3(c4ccc5c(c4)OC(F)(F)O5)CC3)c(=O)c2c1 [Example 252, 3-(3-(2-(1-(2,2-difluorobenzo[d][1,3]dioxol-5-yl)cyclopropyl)-2-oxoethyl)-6-methoxy-4-oxo-3,4-dihydrophthalazin-1-yl)benzonitrile] | > 80% | < 10 µM |
| COc1ccc2c(c1)c1c(=O)n(CC(=O)N(C)c3ccc4nc(C)oc4c3)ncc1n2Cc1ccc(C#N)cc1 [Example 259, 2-(5-(4-cyanobenzyl)-8-methoxy-1-oxo-1,5-dihydro-2H-pyridazino[4,5-b]indol-2-yl)-N-methyl-N-(2-methylbenzo[d]oxazol-6-yl)acetamide] | > 80% | < 10 µM |
| COc1ccc2c(c1)c1c(=O)n(CC(=O)N(C)c3ccc4nc(C)oc4c3)ncc1n2Cc1ccc(F)cc1 [Example 260, 2-(5-(4-fluorobenzyl)-8-methoxy-1-oxo-1,5-dihydro-2H-pyridazino[4,5-b]indol-2-yl)-N-methyl-N-(2-methylbenzo[d]oxazol-6-yl)acetamide] | > 80% | < 10 µM |
